Experiments:
U-87 MG cells = experiment: Resazurin cell viability / cytotoxicity assay; assay type: cell-based, human; conditions: free drug
Method: Regarding cell viability, U-87 MG cells were cultured in DMEM/F-12 medium, supplemented with 10% (v/v) FBS, 1% (v/v) penicillin-streptomycin solution and sodium bicarbonate. Cells were maintained at 37° C. in a humidified atmosphere containing CO2 (5%). The resazurin assay was used to determine the cytotoxicity of NLCs. Briefly, 2000 cells per well were seeded in a 96 well plate and incubated for 24 h or 72 h after the medium was replaced with increasing concentrations of free drugs or NLCs. Subsequently, the medium was removed and the cell viability determined. For this purpose, 100 μL of 10% (w/v) resazurin solution in DMEM/F 12 was added to the cells and incubated for approximately 2 h, at 37° C. The enzymatic reduction of resazurin to resorufin was analyzed by UV/Vis spectrophotometry at 570 nm and 600 nm. Cell viability was assessed indirectly according to equation 1.

human blood = experiment: In vitro hemolytic activity (NCL ITA-1 protocol); assay type: cell-based; conditions: positive control, 3 h at 37° C.
Text: The haemolytic behaviour of NLCs formulations was explored following the Nanotechnology Characterization Lab (NCL) protocol for analysis of Haemolytic Properties of Nanoparticles (NCL ITA-1 Version 1.2), with slight modifications. Briefly, fresh human blood was drawn from healthy participants in the Laboratory of Clinical Analysis of the Faculty of Pharmacy of the University of Coimbra, after a written informed consent was obtained from all individuals. The venous blood, collected in heparinised vacutainer tubes, was properly diluted in PBS to final a concentration of 10 mg/mL of total blood haemoglobin, and incubated with the NLCs at eight different concentrations, regarding ATO content for 3 h at 37° C. Aqueous and acetate buffered polysorbate 80 solutions were also tested in 15 and 100 μg/mL. PBS and Triton™ X-100 were used as negative and positive controls, respectively, with additional no-blood controls being used due to possible interference of CUR at 540 nm. Following incubation, cell-free supernatants were obtained and any plasma-free haemoglobin and metabolites were converted into cyanmethaemoglobin (CMH), using Drabkin's reagent. The detection of CMH was conducted at 540 nm and the percentage of haemolysis (%) was calculated taking into account the equation 2.

`CC(C)c1c(C(=O)Nc2ccccc2)c(-c2ccccc2)c(-c2ccc(F)cc2)n1CC[C@@H](O)C[C@@H](O)CC(=O)O` [ATO, atorvastatin calcium] gave an IC50 (U-87 MG cells; 24 h of incubation) of 134 ± 27 µM and an IC50 (U-87 MG cells; 72 h of incubation) of 25 ± 5 µM.

Work on `COc1cc(/C=C/C(=O)CC(=O)/C=C/c2ccc(O)c(OC)c2)ccc1O` [CUR, curcumin] yielded an IC50 (U-87 MG cells; Homo sapiens, U-87 MG, 24 h of incubation) of 86 ± 35 µM and an IC50 (U-87 MG cells; Homo sapiens, U-87 MG, 72 h of incubation) of 77 ± 1 µM.

Triton™ X-100 was tested, and the hemolysis (human blood) was “complete hemolysis”.

From patent US20220387620A1, “NANOSTRUCTURED DRUG DELIVERY SYSTEM AS A MULTIFUNCTIONAL PLATFORM FOR THERAPY” (priority 2019, published 2022)
